Series [1] deals with HIV-1 (IIIB). The series can be described thus: Antiviral assay in MT-4 cells. The settings on record: Human immunodeficiency virus 1, MT4, 120 h; HIV-1 IIIB in MT-4 cells, 5 days incubation, Cell Titer Glo; read-out: MT4 EC50. Format: cell-based. In outline: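 Read-out: CellTiter-Glo luminescence after 5 days at 37 °C, reflecting survival of MT-4 cells infected with HIV-1 IIIB (1:250 fresh stock dilution) versus mock-infected. Compounds serially diluted into RPMI with 10% FBS; AZT at 5 μM served as positive control.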

Series [2] is described as follows: Cytotoxicity assay in MT-4 cells. Format: cell-based. The settings on record: human; uninfected MT-4 cells, 5 days incubation, Cell Titer Glo; read-out: MT4 CC50. In outline: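 Viability read by Cell Titer Glo luminescence after 5 days at 37 °C. MT-4 cells, not infected, in complete RPMI (10% FBS), received compound dilution series. Base cytotoxicity set with […] puromycin.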
A general note: In ATP-based viability assays light output follows the ATP content of the culture.

For `CCCC(=O)OCOc1c2n(cc(C(=O)NCc3ccc(F)cc3F)c1=O)[C@@H]1CN(C2=O)[C@@H](C)CC[C@]12CC(C)=NO2` [Example 88, (((3′S,5S,7′R)-10′-((2,4-difluorobenzyl)carbamoyl)-3,3′-dimethyl-1′,11′-dioxo-1′,4′,5′,11′-tetrahydro-3′H,4H,7′H-spiro[isoxazole-5,6′-[2,7]methanopyrido[1,2-a][1,4]diazonin]-12′-yl)oxy)methyl butyrate], in series [1], the concentration for a half-maximal effect (EC50) was found to be 1.78 nM. The CC50 at 5 days in series [2] was determined as 20400 nM.
Consider `CCCCC(=O)OCOc1c2n(cc(C(=O)NCc3ccc(F)cc3F)c1=O)[C@@H]1CN(C2=O)[C@@H](C)CC[C@]12CC(OC)=NO2` [Example 89, (((3′S,5S,7′R)-10′-((2,4-difluorobenzyl)carbamoyl)-3-methoxy-3′-methyl-1′,11′-dioxo-1′,4′,5′,11′-tetrahydro-3′H,4H,7′H-spiro[isoxazole-5,6′-[2,7]methanopyrido[1,2-a][1,4]diazonin]-12′-yl)oxy)methyl pentanoate], for which the half-maximal effective concentration (EC50) in series [1] stood at 0.2 nM. Also, in series [2], the CC50 at 5 days came to 15800 nM.
In the same order, the values of `CCCCC(=O)OCOc1c2n(cc(C(=O)NCc3ccc(F)cc3F)c1=O)[C@@H]1CN(C2=O)[C@@H](C)CC[C@]12CC(C)=NO2` [Example 90, (((3′S,5S,7′R)-10′-((2,4-difluorobenzyl)carbamoyl)-3,3′-dimethyl-1′,11′-dioxo-1′,4′,5′,11′-tetrahydro-3′H,4H,7′H-spiro[isoxazole-5,6′-[2,7]methanopyrido[1,2-a][1,4]diazonin]-12′-yl)oxy)methyl pentanoate] are 0.176 nM and 18200 nM.
As to `CCCCCC(=O)OCOc1c2n(cc(C(=O)NCc3ccc(F)cc3F)c1=O)[C@@H]1CN(C2=O)[C@@H](C)CC[C@]12CC(OC)=NO2` [Example 91, (((3′S,5S,7′R)-10′-((2,4-difluorobenzyl)carbamoyl)-3-methoxy-3′-methyl-1′,11′-dioxo-1′,4′,5′,11′-tetrahydro-3′H,4H,7′H-spiro[isoxazole-5,6′-[2,7]methanopyrido[1,2-a][1,4]diazonin]-12′-yl)oxy)methyl hexanoate], the concentration giving a half-maximal response (EC50) in series [1] was determined as 1.86 nM. For the same compound, the 50% cytotoxic concentration (CC50) at 5 days in series [2] stood at 37300 nM.
In the same order, the values of `CCCCCC(=O)OCOc1c2n(cc(C(=O)NCc3ccc(F)cc3F)c1=O)[C@@H]1CN(C2=O)[C@@H](C)CC[C@]12CC(C)=NO2` [Example 92, (((3′S,5S,7′R)-10′-((2,4-difluorobenzyl)carbamoyl)-3,3′-dimethyl-1′,11′-dioxo-1′,4′,5′,11′-tetrahydro-3′H,4H,7′H-spiro[isoxazole-5,6′-[2,7]methanopyrido[1,2-a][1,4]diazonin]-12′-yl)oxy)methyl hexanoate] are 2.14 nM and 21500 nM.
The matching figures for `CCCCCCC(=O)OCOc1c2n(cc(C(=O)NCc3ccc(F)cc3F)c1=O)[C@@H]1CN(C2=O)[C@@H](C)CC[C@]12CC(OC)=NO2` [Example 93, (((3′S,5S,7′R)-10′-((2,4-difluorobenzyl)carbamoyl)-3-methoxy-3′-methyl-1′,11′-dioxo-1′,4′,5′,11′-tetrahydro-3′H,4H,7′H-spiro[isoxazole-5,6′-[2,7]methanopyrido[1,2-a][1,4]diazonin]-12′-yl)oxy)methyl heptanoate]: 2.63 nM and 19500 nM.
In the same order, the values of `CCCCCCC(=O)OCOc1c2n(cc(C(=O)NCc3ccc(F)cc3F)c1=O)[C@@H]1CN(C2=O)[C@@H](C)CC[C@]12CC(C)=NO2` [Example 94, (((3′S,5S,7′R)-10′-((2,4-difluorobenzyl)carbamoyl)-3,3′-dimethyl-1′,11′-dioxo-1′,4′,5′,11′-tetrahydro-3′H,4H,7′H-spiro[isoxazole-5,6′-[2,7]methanopyrido[1,2-a][1,4]diazonin]-12′-yl)oxy)methyl heptanoate] are 2.73 nM and 17600 nM.
In the case of `CCCCCCCC(=O)OCOc1c2n(cc(C(=O)NCc3ccc(F)cc3F)c1=O)[C@@H]1CN(C2=O)[C@@H](C)CC[C@]12CC(OC)=NO2` [Example 95, (((3′S,5S,7′R)-10′-((2,4-difluorobenzyl)carbamoyl)-3-methoxy-3′-methyl-1′,11′-dioxo-1′,4′,5′,11′-tetrahydro-3′H,4H,7′H-spiro[isoxazole-5,6′-[2,7]methanopyrido[1,2-a][1,4]diazonin]-12′-yl)oxy)methyl octanoate], in series [1], the EC50 is 0.998 nM. Further, the CC50 at 5 days in series [2] was ≥ 50000 nM.
In the same order, the values of `CCCCCCCC(=O)OCOc1c2n(cc(C(=O)NCc3ccc(F)cc3F)c1=O)[C@@H]1CN(C2=O)[C@@H](C)CC[C@]12CC(C)=NO2` [Example 96, (((3′S,5S,7′R)-10′-((2,4-difluorobenzyl)carbamoyl)-3,3′-dimethyl-1′,11′-dioxo-1′,4′,5′,11′-tetrahydro-3′H,4H,7′H-spiro[isoxazole-5,6′-[2,7]methanopyrido[1,2-a][1,4]diazonin]-12′-yl)oxy)methyl octanoate] are 0.562 nM and ≥ 50000 nM.
The matching figures for `CCCCCCCCC(=O)OCOc1c2n(cc(C(=O)NCc3ccc(F)cc3F)c1=O)[C@@H]1CN(C2=O)[C@@H](C)CC[C@]12CC(OC)=NO2` [Example 97, (((3′S,5S,7′R)-10′-((2,4-difluorobenzyl)carbamoyl)-3-methoxy-3′-methyl-1′,11′-dioxo-1′,4′,5′,11′-tetrahydro-3′H,4H,7′H-spiro[isoxazole-5,6′-[2,7]methanopyrido[1,2-a][1,4]diazonin]-12′-yl)oxy)methyl nonanoate]: 4.59 nM and ≥ 50000 nM.
Consider `CCCCCCCCC(=O)OCOc1c2n(cc(C(=O)NCc3ccc(F)cc3F)c1=O)[C@@H]1CN(C2=O)[C@@H](C)CC[C@]12CC(C)=NO2` [Example 98, (((3′S,5S,7′R)-10′-((2,4-difluorobenzyl)carbamoyl)-3,3′-dimethyl-1′,11′-dioxo-1′,4′,5′,11′-tetrahydro-3′H,4H,7′H-spiro[isoxazole-5,6′-[2,7]methanopyrido[1,2-a][1,4]diazonin]-12′-yl)oxy)methyl nonanoate], for which the EC50 in series [1] turned out to be 3.87 nM. Also, in series [2], the CC50 at 5 days is ≥ 50000 nM.
In the case of `CCCCCCCCCC(=O)OCOc1c2n(cc(C(=O)NCc3ccc(F)cc3F)c1=O)[C@@H]1CN(C2=O)[C@@H](C)CC[C@]12CC(OC)=NO2` [Example 99, (((3′S,5S,7′R)-10′-((2,4-difluorobenzyl)carbamoyl)-3-methoxy-3′-methyl-1′,11′-dioxo-1′,4′,5′,11′-tetrahydro-3′H,4H,7′H-spiro[isoxazole-5,6′-[2,7]methanopyrido[1,2-a][1,4]diazonin]-12′-yl)oxy)methyl decanoate], the concentration for a half-maximal effect (EC50) in series [1] came to 0.471 nM. Besides, the 50% cytotoxic concentration (CC50) at 5 days in series [2] is ≥ 50000 nM.
In the same order, the values of `CCCCCCCCCC(=O)OCOc1c2n(cc(C(=O)NCc3ccc(F)cc3F)c1=O)[C@@H]1CN(C2=O)[C@@H](C)CC[C@]12CC(C)=NO2` [Example 100, (((3′S,5S,7′R)-10′-((2,4-difluorobenzyl)carbamoyl)-3,3′-dimethyl-1′,11′-dioxo-1′,4′,5′,11′-tetrahydro-3′H,4H,7′H-spiro[isoxazole-5,6′-[2,7]methanopyrido[1,2-a][1,4]diazonin]-12′-yl)oxy)methyl decanoate] are 0.246 nM and ≥ 50000 nM.
The matching figures for `CCCCCCCCCCCC(=O)OCOc1c2n(cc(C(=O)NCc3ccc(F)cc3F)c1=O)[C@@H]1CN(C2=O)[C@@H](C)CC[C@]12CC(OC)=NO2` [Example 101, (((3′S,5S,7′R)-10′-((2,4-difluorobenzyl)carbamoyl)-3-methoxy-3′-methyl-1′,11′-dioxo-1′,4′,5′,11′-tetrahydro-3′H,4H,7′H-spiro[isoxazole-5,6′-[2,7]methanopyrido[1,2-a][1,4]diazonin]-12′-yl)oxy)methyl dodecanoate]: 5.79 nM and ≥ 50000 nM.
The matching figures for `CCCCCCCCCCCC(=O)OCOc1c2n(cc(C(=O)NCc3ccc(F)cc3F)c1=O)[C@@H]1CN(C2=O)[C@@H](C)CC[C@]12CC(C)=NO2` [Example 102, (((3′S,5S,7′R)-10′-((2,4-difluorobenzyl)carbamoyl)-3,3′-dimethyl-1′,11′-dioxo-1′,4′,5′,11′-tetrahydro-3′H,4H,7′H-spiro[isoxazole-5,6′-[2,7]methanopyrido[1,2-a][1,4]diazonin]-12′-yl)oxy)methyl dodecanoate]: 4.96 nM and ≥ 50000 nM.
On to `CCCCCCCCCCCCCCCC(=O)OCOc1c2n(cc(C(=O)NCc3ccc(F)cc3F)c1=O)[C@@H]1CN(C2=O)[C@@H](C)CC[C@]12CC(OC)=NO2` [Example 104, (((3′S,5S,7′R)-10′-((2,4-difluorobenzyl)carbamoyl)-3-methoxy-3′-methyl-1′,11′-dioxo-1′,4′,5′,11′-tetrahydro-3′H,4H,7′H-spiro[isoxazole-5,6′-[2,7]methanopyrido[1,2-a][1,4]diazonin]-12′-yl)oxy)methyl palmitate], for which the EC50 in series [1] amounted to 11.7 nM. Further, the CC50 at 5 days in series [2] is ≥ 50000 nM.
For the compound `CCCCCCCCCCCCCCCC(=O)OCOc1c2n(cc(C(=O)NCc3ccc(F)cc3F)c1=O)[C@@H]1CN(C2=O)[C@@H](C)CC[C@]12CC(C)=NO2` [Example 105, (((3′S,5S,7′R)-10′-((2,4-difluorobenzyl)carbamoyl)-3,3′-dimethyl-1′,11′-dioxo-1′,4′,5′,11′-tetrahydro-3′H,4H,7′H-spiro[isoxazole-5,6′-[2,7]methanopyrido[1,2-a][1,4]diazonin]-12′-yl)oxy)methyl palmitate], in series [1], the EC50 was 22.5 nM. For the same compound, in series [2], the cytotoxic concentration (CC50) at 5 days is ≥ 50000 nM.

As usually defined, the EC50 is the concentration needed to bring the measured effect to its halfway point. The CC50 is the concentration giving 50% cytotoxicity.

These data come from US20250122219A1 (priority 2023, published 2025).
